Each structure is given as a SMILES string.

Experiment [1] deals with BT474 cells. Kind of experiment: BT-474 cell growth inhibition assay (SRB assay). It counts as cell-based. To be noted: Homo sapiens, concentration of 3 μM, 72 h, read-out: Inhibition Percent (%). Here is the method: BT-474 Cell Growth Inhibition Assay (SRB Assay)
BT-474 human breast cancer cell lines were kindly provided by Dr. Changnian Liu, Pharmaron Beijing Co., Ltd.
BT-474 cells were cultured in 37° C., 5% CO2, saturated humidity until logarithmic phase. Discarded culture medium, washed cells once by PBS. Added 1 ml Trypsin/EDTA solution, stood at 37° C. for 5 min, allowed the cells to detach. Added culture medium, adjusted the cells density to 1×10^5 cells/ml.
Day 0, added 100 μl/well cells suspension to 96-well cell culture plates. Incubated overnight to let the cells attach completely.
Day 1, compounds (2 mM in DMSO as stock solution) was diluted to 20 μM in EMEM. Then a fourfold serial dilution was made. These diluted compounds were made as 10× reaction solutions, and the concentration of DMSO was kept at 1%.
Added 80 μl culture medium and 20 μl 10× compound reaction solution to the testing wells, or vehicle control to the control wells. Co-incubated cells with compounds for another 72 h.
Day 3, fixed cellular protein by the addition of 100 μl/well of 10% TCA (diluting from 50% TCA) at 4° C. for 1 h. Rinsed TCA using plate washer, and washed five times using distilled water. Removed the residual wash solution with a piece of absorbent paper. Added 100 μl/well 0.4% SRB solution, allowed a 15-30 min staining period. Removed the SRB, and washed the culture plates five times using 1% acetic acid. Removed the residual wash solution with a piece of absorbent paper. Air-dried the culture plates, dissolved the protein-bound dye with 100 μl/well of 10 mM Tris base solution. Shook the plates until the dye was dissolved completely.

Experiment [2] deals with A431 cells. The experiment is described as follows: A431 cell growth inhibition assay (MTT assay). It counts as cell-based. The following applies: Homo sapiens; for inhibition at 3 µM: A-431, concentration of 3 μM, 72 hours, read-out: Inhibition Percent (%); for EC50: A-431, 72 hours (Table 11). Here is the method:
A431 Cell Growth Inhibition Assay (MTT Assay)
A431, an epidermoid carcinoma cell line; The Cell Bank, Committee on Type Culture Collection Chinese Academy of Science, Shanghai.
Mix prepared medium DMEM and F12 in the proportion of 1:1, then add FBS to a final concentration of 10%.
Dissolved the dried compound sample with 100% DMSO to 2 mM. Then diluted the dissolved compound to 20 μM with cell complete growth medium.
Prior to the assay, cultured the A431 to logarithmic phase, and then removed medium from cell monolayers and wash the cells once with sterilized PBS. Aspriated the PBS and added 2 mL trypsin solution to cover the cell growth surface, removed 1 mL trypsin solution after soaking about 1 minute. Transferred the cell-culture plate to CO2 incubator; incubated at 37° C. for 8 minutes to allow cells to dissociate. After the cells detached, added 4 mL complete growth medium containing FBS with pipette to disperse them off and mixed gently to obtain a homogeneous cell suspension. Aspirated some of the cell suspension to a sterilized polypropylene tube, and determined the cell concentration by counting in a hematocytometer chamber under a microscope. Adjusted the cell concentration with growth medium to obtain 2.5×10^4 cells per milliliter.
Added 100 μL adjusted cell suspension to the 96-well cell-culture plate and occasionally mixed the cell suspension during the seeding process. After seeding cells, incubated the plate at 37° C. overnight with 5% CO2 in the CO2 incubator for cell attachment.
After the cell attachment, added 100 μL prepared compound solutions to the corresponding wells (add PBS to the ambient wells of the plate). The final compound concentrations ranged from 10 μM to 1.52 nM. Incubated the plate at 37° C. with 5% CO2 for 72 hours in the CO2 incubator.
After the exposure to the compound, removed the cell culture supernatant. Then added 100 μL 0.5 mg/mL MTT solution which dissolved in the growth medium without FBS. Incubated the plate at 37° C. with 5% CO2 for another 4 hours to allow the MTT reaction to proceed.
After the MTT reaction, discarded the MTT reaction solution. Added 100 μL DMSO to each well, and the plate was agitated on the plate shaker for several minutes to dissolve the formazan. Then, detected the absorbance at 490 nm using microplate reader.

As for `CCOc1cc2ncc(C#N)c(Nc3ccc(OCc4ccccn4)c(Cl)c3)c2cc1NC(=O)C=C1CCN(CC)CC1` [Example 199, N-(4-(3-chloro-4-(pyridin-2-ylmethoxy)phenylamino)-3-cyano-7-ethoxyquinolin-6-yl)-2-(1-ethylpiperidin-4-ylidene)acetamide], the inhibition at 3 µM in experiment [1] was found to be 87%.

For `CCOc1cc2ncc(C#N)c(Nc3ccc(OCc4cccc(F)c4)c(Cl)c3)c2cc1NC(=O)C=C1CCN(C)CC1` [Example 162, N-(4-(4-(3-fluorobenzyloxy)-3-chlorophenylamino)-3-cyano-7-ethoxyquinolin-6-yl)-2-(1-methylpiperidin-4-ylidene)acetamide], the inhibition at 3 µM turned out to be 91% in experiment [1] and 41% in experiment [2].

Turning to `CCOc1cc2ncc(C#N)c(Nc3ccc(OCc4cccc(F)c4)c(Cl)c3)c2cc1NC(=O)C=C1CCNCC1` [Example 145, N-(4-(4-(3-fluorobenzyloxy)-3-chlorophenylamino)-3-cyano-7-ethoxyquinolin-6-yl)-2-(piperidin-4-ylidene)acetamide], the inhibition at 3 µM in experiment [1] came to 80%. In experiment [2], the response was half-maximal at 3400 nM (EC50) and the inhibition at 3 µM amounted to 49%.

For the compound `N#Cc1cnc2ccc(NC(=O)C=C3CCNCC3)cc2c1Nc1ccc(OCc2ccccn2)c(Cl)c1` [Example 166, N-(4-(3-chloro-4-(pyridin-2-ylmethoxy)phenylamino)-3-cyanoquinolin-6-yl)-2-(ppiperidin-4-ylidene)acetamide], the results for the inhibition at 3 µM in experiment [1] and in experiment [2] were 85% and 49%, respectively.

As for `COc1cc2ncc(C#N)c(Nc3cccc(Br)c3)c2cc1NC(=O)C=C1CCNCC1` [Example 155, N-(4-(3-bromophenylamino)-3-cyano-7-methoxyquinolin-6-yl)-2-(piperidin-4-ylidene)acetamide], the results for the inhibition at 3 µM in experiment [1] and in experiment [2] were 58% and 90%, respectively.

In the case of `N#Cc1cnc2ccc(NC(=O)C=C3CCNCC3)cc2c1Nc1ccc(OCc2cccc(F)c2)c(Cl)c1` [Example 168, N-(4-(4-(3-fluorobenzyloxy)-3-chlorophenylamino)-3-cyanoquinolin-6-yl)-2-(piperidin-4-ylidene)acetamide], the inhibition at 3 µM in experiment [1] stood at 89%; in experiment [2], 41%.

With `CCCN1CCC(=CC(=O)Nc2cc3c(Nc4ccc(OCc5ccccn5)c(Cl)c4)c(C#N)cnc3cc2OCCOC)CC1` [Example 202, N-(4-(3-chloro-4-(pyridin-2-ylmethoxy)phenylamino)-3-cyano-7-(2-methoxyethoxy)quinolin-6-yl)-2-(1-propylpiperidin-4-ylidene)acetamide], the inhibition at 3 µM in experiment [1] came to 92%.

As to `C#Cc1cccc(Nc2c(C#N)cnc3cc(OCC)c(NC(=O)C=C4CCNCC4)cc23)c1` [Example 152, N-(3-cyano-7-ethoxy-4-(3-ethynylphenylamino)quinolin-6-yl)-2-(piperidin-4-ylidene)acetamide], the inhibition at 3 µM in experiment [1] was determined as 59%. Besides, in experiment [2], the EC50 came to 140 nM and the inhibition at 3 µM amounted to 95%.

As to `N#Cc1cnc2ccc(NC(=O)C=C3CCNCC3)cc2c1Nc1ccc(F)c(Cl)c1` [Example 173, N-(4-(3-chloro-4-fluorophenylamino)-3-cyanoquinolin-6-yl)-2-(piperidin-4-ylidene)acetamide], the inhibition at 3 µM turned out to be 44% in experiment [1] and 87% in experiment [2].

Turning to `C#Cc1cccc(Nc2c(C#N)cnc3ccc(NC(=O)C=C4CCNCC4)cc23)c1` [Example 170, N-(3-cyano-4-(3-ethynylphenylamino)quinolin-6-yl)-2-(piperidin-4-ylidene)acetamide], the inhibition at 3 µM is 56% in experiment [1] and 88% in experiment [2].

In the case of `COCCOc1cc2ncc(C#N)c(Nc3ccc(OCc4cccc(F)c4)c(Cl)c3)c2cc1NC(=O)C=C1CCNCC1` [Example 167, N-(4-(4-(3-fluorobenzyloxy)-3-chlorophenylamino)-3-cyano-7-(2-methoxyethoxy)quinolin-6-yl)-2-(piperidin-4-ylidene)acetamide], the values for the inhibition at 3 µM in experiment [1] and in experiment [2] were 84% and 45%, respectively.

`CCN1CCC(=CC(=O)Nc2cc3c(Nc4ccc(OCc5ccccn5)c(Cl)c4)c(C#N)cnc3cc2OCCOC)CC1` [Example 201, N-(4-(3-chloro-4-(pyridin-2-ylmethoxy)phenylamino)-3-cyano-7-(2-methoxyethoxy)quinolin-6-yl)-2-(1-ethylpiperidin-4-ylidene)acetamide]: the inhibition at 3 µM in experiment [1] came out at 89%.

As to `N#Cc1cnc2ccc(NC(=O)C=C3CCNCC3)cc2c1Nc1cccc(Br)c1` [Example 172, N-(4-(3-bromophenylamino)-3-cyanoquinolin-6-yl)-2-(piperidin-4-ylidene)acetamide], the inhibition at 3 µM in experiment [1] worked out at 61%; in experiment [2], 84%.

With `COCCN1CCC(=CC(=O)Nc2cc3c(Nc4ccc(OCc5ccccn5)c(Cl)c4)c(C#N)cnc3cc2OC)CC1` [Example 198, N-(4-(3-chloro-4-(pyridin-2-ylmethoxy)phenylamino)-3-cyano-7-methoxyquinolin-6-yl)-2-(1-(2-methoxyethyl)piperidin-4-ylidene)acetamide], the inhibition at 3 µM in experiment [1] is 86%.

Consider `COCCOc1cc2ncc(C#N)c(Nc3ccc(OCc4cccc(F)c4)c(Cl)c3)c2cc1NC(=O)C=C1CCN(CCOC)CC1` [Example 211, N-(4-(4-(3-fluorobenzyloxy)-3-chlorophenylamino)-3-cyano-7-(2-methoxyethoxy)quinolin-6-yl)-2-(1-(2-methoxyethyl)piperidin-4-ylidene)acetamide], for which, in experiment [1], the inhibition at 3 µM is 81%.

As for `CCOc1cc2ncc(C#N)c(Nc3ccc(OCc4cccc(F)c4)c(Cl)c3)c2cc1NC(=O)C=C1CCN(CC)CC1` [Example 206, N-(4-(4-(3-fluorobenzyloxy)-3-chlorophenylamino)-3-cyano-7-ethoxyquinolin-6-yl)-2-(1-ethylpiperidin-4-ylidene)acetamide], the inhibition at 3 µM in experiment [1] stood at 80%.

Turning to `COc1cc2ncc(C#N)c(Nc3ccc(OCc4ccccn4)c(Cl)c3)c2cc1NC(=O)C=C1CCN(C)CC1` [Example 197, N-(4-(3-chloro-4-(pyridin-2-ylmethoxy)phenylamino)-3-cyano-7-methoxyquinolin-6-yl)-2-(1-methylpiperidin-4-ylidene)acetamide], in experiment [1], the inhibition at 3 µM is 82%.

As for `CCN1CCC(=CC(=O)Nc2cc3c(Nc4ccc(OCc5cccc(F)c5)c(Cl)c4)c(C#N)cnc3cc2OCCOC)CC1` [Example 209, N-(4-(4-(3-fluorobenzyloxy)-3-chlorophenylamino)-3-cyano-7-(2-methoxyethoxy)quinolin-6-yl)-2-(1-ethylpiperidin-4-ylidene)acetamide], in experiment [1], the inhibition at 3 µM came to 78%.

On to `COCCOc1cc2ncc(C#N)c(Nc3ccc(OCc4ccccn4)c(Cl)c3)c2cc1NC(=O)C=C1CCN(C)CC1` [Example 200, N-(4-(3-chloro-4-(pyridin-2-ylmethoxy)phenylamino)-3-cyano-7-(2-methoxyethoxy)quinolin-6-yl)-2-(1-methylpiperidin-4-ylidene)acetamide], for which the inhibition at 3 µM in experiment [1] was 90%.

In the case of `COCCOc1cc2ncc(C#N)c(Nc3ccc(OCc4cccc(F)c4)c(Cl)c3)c2cc1NC(=O)C=C1CCN(C)CC1` [Example 208, N-(4-(4-(3-fluorobenzyloxy)-3-chlorophenylamino)-3-cyano-7-(2-methoxyethoxy)quinolin-6-yl)-2-(1-methylpiperidin-4-ylidene)acetamide], in experiment [1], the inhibition at 3 µM was 83%.

These data come from US8765946B2, “Methods of preparing and using quinazoline and quinoline derivatives” (priority 2006, dated 2014).
